Assay results reported in ChEMBL document CHEMBL3621186, “Design, synthesis and antitumor activity of non-camptothecin topoisomerase I inhibitors” (Bioorg Med Chem Lett, 2015).
Calls of active or inactive are those of the source. The rule behind the calls is not given here.

Experiments:
SK-OV-3 [1] = experiment: Cytotoxicity against human SKOV3 cells assessed as inhibition of cell proliferation at 10 uM by MTT assay relative to control; assay type: functional
U-87 MG [2] = experiment: Cytotoxicity against human U87MG cells assessed as inhibition of cell proliferation at 10 uM by MTT assay relative to control; assay type: functional, U-87MG ATCC
PC-3 [3] = experiment: Cytotoxicity against human PC3 cells assessed as inhibition of cell proliferation at 10 uM by MTT assay relative to control; assay type: functional
HCT-116 [4] = experiment: Cytotoxicity against human HCT116 cells assessed as inhibition of cell proliferation at 10 uM by MTT assay relative to control; assay type: functional
HepG2 [5] = experiment: Cytotoxicity against human HepG2 cells assessed as inhibition of cell proliferation at 10 uM by MTT assay relative to control; assay type: functional
HepG2 [6] = experiment: Cytotoxicity against human HepG2 cells assessed as inhibition of cell proliferation by MTT assay; assay type: functional, cell-based
PC-3 [7] = experiment: Cytotoxicity against human PC3 cells assessed as inhibition of cell proliferation by MTT assay; assay type: functional, cell-based
HCT-116 [8] = experiment: Cytotoxicity against human HCT116 cells assessed as inhibition of cell proliferation by MTT assay; assay type: functional, cell-based
SK-OV-3 [9] = experiment: Cytotoxicity against human SKOV3 cells assessed as inhibition of cell proliferation by MTT assay; assay type: functional, cell-based
[10] = target: T1, DNA topoisomerase 1 (Homo sapiens) (UniProt P11387); experiment: Inhibition of recombinant human DNA topoisomerase-1 assessed as relaxation of supercoiled pBR322 DNA at 50 uM after 30 mins by agarose gel electrophoresis
T1 sequence (whole entry): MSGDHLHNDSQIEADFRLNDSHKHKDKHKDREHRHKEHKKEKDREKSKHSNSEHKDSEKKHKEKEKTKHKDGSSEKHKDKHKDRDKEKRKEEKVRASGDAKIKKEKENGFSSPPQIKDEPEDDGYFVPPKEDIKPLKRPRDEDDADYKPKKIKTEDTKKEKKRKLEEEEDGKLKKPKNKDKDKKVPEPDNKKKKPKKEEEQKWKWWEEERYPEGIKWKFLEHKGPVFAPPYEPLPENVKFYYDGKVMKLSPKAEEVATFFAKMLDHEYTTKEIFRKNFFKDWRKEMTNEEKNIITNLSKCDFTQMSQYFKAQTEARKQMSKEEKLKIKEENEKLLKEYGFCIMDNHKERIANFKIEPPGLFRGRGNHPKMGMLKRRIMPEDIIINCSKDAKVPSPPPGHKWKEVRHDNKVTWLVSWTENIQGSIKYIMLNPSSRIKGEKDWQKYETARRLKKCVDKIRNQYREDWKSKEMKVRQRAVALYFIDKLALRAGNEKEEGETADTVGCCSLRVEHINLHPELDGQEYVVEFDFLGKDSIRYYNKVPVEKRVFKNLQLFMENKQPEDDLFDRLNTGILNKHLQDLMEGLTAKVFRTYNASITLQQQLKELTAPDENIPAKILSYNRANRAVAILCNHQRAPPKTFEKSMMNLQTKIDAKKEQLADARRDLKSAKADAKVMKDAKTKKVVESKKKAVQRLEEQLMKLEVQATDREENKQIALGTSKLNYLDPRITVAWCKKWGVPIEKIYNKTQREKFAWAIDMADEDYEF

U-87 MG [11] = experiment: Cytotoxicity against human U87MG cells assessed as inhibition of cell proliferation by MTT assay; assay type: functional, cell-based, U-87MG ATCC

Compound	inhibition at 10 µM (SK-OV-3 [1]) [%]	inhibition at 10 µM (U-87 MG [2]) [%]	inhibition at 10 µM (PC-3 [3]) [%]	inhibition at 10 µM (HCT-116 [4]) [%]	inhibition at 10 µM (HepG2 [5]) [%]	IC50 (HepG2 [6]) [nM]	IC50 (PC-3 [7]) [nM]	IC50 (HCT-116 [8]) [nM]	IC50 (SK-OV-3 [9]) [nM]	inhibition [10]	IC50 (U-87 MG [11]) [nM]
Cc1ccc2nc3c(nc2c1)C(=O)c1ccccc1-3	11.2	-13.9	-8.92	6.32	6.44						
COc1ccc2nc3c(nc2c1)C(=O)c1ccccc1-3	8.07	-14.4	-4.44	8.68	14.7						
COc1ccc2nc3c(nc2c1)-c1ccccc1C3=O	-7.19	-7.74	-1.15	16.9	6.56						
O=C1c2ccccc2-c2nc3cccnc3nc21	13.2	20.8	52.7	71.9	55.4	33800	4380	44600			
CN(C)CCCn1c2c(c3c4ccccc4c(O)cc31)C(=O)c1ccccc1C2=O	77.4	86	59.6	91.2	88	1970	612	996	783	Active	325
O=C1c2ccccc2-c2nc3ncccc3nc21	2.89	-23.3	36.2	1.49	15.2						
CCOC(=O)C1c2c(O)cccc2-n2c(=O)c3ccccc3c(=O)n21 (stereo not given)	-3.97	1.9	4.9	0.4	11.2						
O=C(NCCCO)C1c2c(O)cccc2-n2c(=O)c3ccccc3c(=O)n21 (stereo not given)	-5.15	2.4	7.6	-3.8	-3.15						
CN(C)CCNC(=O)C1c2c(O)cccc2-n2c(=O)c3ccccc3c(=O)n21 (stereo not given)	-1.46	1.1	4	-4.2	-2.82						
CN(C)CCCNC(=O)C1c2c(O)cccc2-n2c(=O)c3ccccc3c(=O)n21 (stereo not given)	-4.01	-4.7	11.1	-4.5	-8.92						
CN(C)CCCNC(=O)C1c2c(ccc(Br)c2O)-n2c(=O)c3ccccc3c(=O)n21 (stereo not given)	-4.1	-2.5	6.4	-5.7	-7.99						
CN(C)CCn1c2c(c3c4ccccc4c(O)cc31)C(=O)c1ccccc1C2=O	82.4	78.8	66.5	92	88.2	844	389	706	1010	Active	169
CCOC(=O)C1c2c(ccc(Br)c2O)-n2c(=O)c3ccccc3c(=O)n21 (stereo not given)	-3.43	4.1	0.8	3.3	2.54						
COc1ccc2[nH]c3c(c2c1)C(=O)c1ccccc1C3=O	57.6	49	8.56	76.2	26.6						
O=C1c2ccccc2-c2nc3ccccc3nc21	10.1	-14.5	-8.39	-1.83	53.2						
O=C(NCCO)C1c2c(ccc(Br)c2O)-n2c(=O)c3ccccc3c(=O)n21 (stereo not given)	-4.34	0.4	6.5	3.7	15.1						
CN(C)CCNC(=O)C1c2c(ccc(Br)c2O)-n2c(=O)c3ccccc3c(=O)n21 (stereo not given)	-6.16	0.1	14.3	-5.8	3.89						
CCOC(=O)C1C2=C(CCCC2=O)n2c(=O)c3ccccc3c(=O)n21 (stereo not given)	-4.89	1.5	11.1	3.5	12						
O=C(NCCCO)C1c2c(ccc(Br)c2O)-n2c(=O)c3ccccc3c(=O)n21 (stereo not given)	-4.25	-4.7	5.3	5.4	-8.92						
O=C1c2ccccc2-c2nc3ccc(C(F)(F)F)cc3nc21	14.2	-15.6	15.9	17.2	43.8						
O=C1c2ccccc2-c2nc3cc(F)ccc3nc21	9.6	-13.2	2.65	22.7	50.5						
O=C1c2ccccc2-c2nc3cc4ccccc4cc3nc21	-8.16	-11.5	11.8	7.32	2.82						
O=C1c2ccccc2-c2nc3cc(C(F)(F)F)ccc3nc21	-0.82	-7.67	-1.15	12.2	42.9						
O=C(NCCO)C1c2c(O)cccc2-n2c(=O)c3ccccc3c(=O)n21 (stereo not given)	-7.14	-0.6	5	-0.6	-0.87						
